From US20240101531A1, “PYRIDINAMINE DERIVATIVES AND THEIR USE AS POTASSIUM CHANNEL MODULATORS” (Xenon Pharmaceuticals Inc., priority 2022, published 2024)
pEC50: −log10 of the molar value. Where a name gives a salt, the structure may show the parent alone.

Target: human KV7.2/KV7.3 (Homo sapiens (Human), UniProt O43525+O43526)
Assay: Potassium flux assay (IPG-2 AM dye)
Assay type: cell-based
Details: TREX HEK 293 or HEK 293 cells expressing human KV7.2/KV7.3; arithmetic mean values
In short: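 HEK 293 or TREX HEK 293 cells stably expressing human KV7.2/KV7.3 (tetracycline-induced where needed), loaded with IPG-2 AM, then compound for 20 min at room temperature. Flux triggered by K challenge buffer (10 mM KCl, pH 7.4), read at 530/558 nm; EC50 from 16-point 2-fold series from 30 μM, normalised to DMSO and reference modulator.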

Row | pEC50 | Compound
1 | 5.00 to 6.00 | O=C(N[C@@H]1CCC[C@H](Oc2ccc3c(Nc4cnc(Cl)nc4)nccc3c2)C1)C(F)(F)F [Example 375, N-((1R,3S)-3-((1-((2-chloropyrimidin-5-yl)amino)isoquinolin-6-yl)oxy)cyclohexyl)-2,2,2-trifluoroacetamide]
2 | 5.00 to 6.00 | FC(F)COc1ccc2c(Nc3ccc(Cl)nc3)nccc2c1 [Example 417, N-(6-chloropyridin-3-yl)-6-(2,2-difluoroethoxy)isoquinolin-1-amine]
3 | > 6.00 | Clc1ccc(Nc2nccc3cc(O[C@@H]4CCOC4)ccc23)cn1 [Example 297, (R)-N-(6-chloropyridin-3-yl)-6-((tetrahydrofuran-3-yl)oxy)isoquinolin-1-amine trifluoroacetate]
4 | 5.00 to 6.00 | Clc1ccc(Nc2nccc3cc(Oc4cn[nH]c4)ccc23)cn1 [Example 267, 6-((1H-pyrazol-4-yl)oxy)-N-(6-chloropyridin-3-yl)isoquinolin-1-amine]
5 | 5.00 to 6.00 | Clc1ccc(Nc2nccc3cc(OCc4c[nH]nc4Cl)ccc23)cn1 [Example 337, 6-((3-chloro-1H-pyrazol-4-yl)methoxy)-N-(6-chloropyridin-3-yl)isoquinolin-1-amine]
6 | 5.00 to 6.00 | C[C@@H]1CN(CCOc2ccc3c(Nc4ccc(Cl)nc4)nccc3c2)C[C@H](C)O1 [Example 319, N-(6-chloropyridin-3-yl)-6-(2-((2S,6R)-2,6-dimethylmorpholino)ethoxy)isoquinolin-1-amine]
7 | 5.00 to 6.00 | Clc1ccc(Nc2nccc3cc(O[C@H]4CCOC4)ccc23)cn1 [Example 298, (S)-N-(6-chloropyridin-3-yl)-6-((tetrahydrofuran-3-yl)oxy)isoquinolin-1-amine trifluoroacetate]
8 | > 6.00 | N=[S@@]1(=O)CCC[C@@H](COc2ccc3c(Nc4cnc(Cl)nc4)nccc3c2)C1 (relative stereo) [Example 367, trans-3-(((1-((2-chloropyrimidin-5-yl)amino)isoquinolin-6-yl)oxy)methyl)-1-iminohexahydro-1λ^6-thiopyran 1-oxide]
9 | 5.00 to 6.00 | Clc1ccc(Nc2nccc3cc(OC[C@H]4CCCN4Cc4ccccc4)ccc23)cn1 [Example 280, (R)-6-((1-benzylpyrrolidin-2-yl)methoxy)-N-(6-chloropyridin-3-yl)isoquinolin-1-amine]
10 | 5.00 to 6.00 | C[C@H]1COCCN1CCOc1ccc2c(Nc3ccc(Cl)nc3)nccc2c1 [Example 321, (S)-N-(6-chloropyridin-3-yl)-6-(2-(3-methylmorpholino)ethoxy)isoquinolin-1-amine]
11 | > 6.00 | COc1ncc(Nc2nccc3cc(OCc4cn[nH]c4C)ccc23)cn1 [Example 388, N-(2-methoxypyrimidin-5-yl)-6-((5-methyl-1H-pyrazol-4-yl)methoxy)isoquinolin-1-amine]
12 | 5.00 to 6.00 | O[C@H]1CC[C@H](Oc2ccc3c(Nc4ccc(Cl)nc4)nccc3c2)CC1 [Example 350, (1r,4r)-4-((1-((6-chloropyridin-3-yl)amino)isoquinolin-6-yl)oxy)cyclohexan-1-ol]
13 | > 6.00 | CS(=O)(=Nc1ccc2c(Nc3ccc(Cl)nc3)nccc2c1)C1CC1 (stereo not shown) [Example 268, ((1-((6-chloropyridin-3-yl)amino)isoquinolin-6-yl)imino)(cyclopropyl)(methyl)-λ^6-sulfanone]

Further lines, the molecule ahead of its results:

Row | Compound | pEC50
14 | Clc1ccc(Nc2nccc3cc(OCC4COC4)ccc23)cn1 [Example 223, N-(6-chloropyridin-3-yl)-6-(oxetan-3-ylmethoxy)isoquinolin-1-amine] | > 6.00
15 | Clc1ccc(Nc2nccc3cc(OC4CCN(Cc5ccccc5)CC4)ccc23)cn1 [Example 90, 6-((1-benzylpiperidin-4-yl)oxy)-N-(6-chloropyridin-3-yl)isoquinolin-1-amine trifluoroacetate] | 5.00 to 6.00
16 | N#CC1(COc2ccc3c(Nc4cnc(Cl)nc4)nccc3c2)COC1 [Example 208, 3-(((1-((2-chloropyrimidin-5-yl)amino)isoquinolin-6-yl)oxy)methyl)oxetane-3-carbonitrile] | > 6.00
17 | Cc1nnc(COc2ccc3c(Nc4ccc(Cl)nc4)nccc3c2)o1 [Example 63, N-(6-chloropyridin-3-yl)-6-((5-methyl-1,3,4-oxadiazol-2-yl)methoxy)isoquinolin-1-amine] | 5.00 to 6.00
18 | N#CC1(COc2ccc3c(Nc4cnc(Cl)nc4)nccc3c2)CC1 [Example 207, 1-(((1-((2-chloropyrimidin-5-yl)amino)isoquinolin-6-yl)oxy)methyl)cyclopropane-1-carbonitrile] | > 6.00
19 | O[C@@H]1CC[C@@H](Oc2ccc3c(Nc4ccc(Cl)nc4)nccc3c2)C1 (racemic) [Example 103, rac-(1R,3R)-3-((1-((6-chloropyridin-3-yl)amino)isoquinolin-6-yl)oxy)cyclopentan-1-ol] | > 6.00
20 | COC1(COc2ccc3c(Nc4ccc(Cl)nc4)nccc3c2)CC1 [Example 177, N-(6-chloropyridin-3-yl)-6-((1-methoxycyclopropyl)methoxy)isoquinolin-1-amine] | > 6.00
21 | Fc1c(OCC2CC2)ccc2c(Nc3ccc(Cl)nc3)nccc12 [Example 229, N-(6-chloropyridin-3-yl)-6-(cyclopropylmethoxy)-5-fluoroisoquinolin-1-amine] | 5.00 to 6.00
22 | FC1(F)CC(Oc2ccc3c(Nc4ccc(Cl)nc4)nccc3c2)C1 [Example 412, N-(6-chloropyridin-3-yl)-6-(3,3-difluorocyclobutoxy)isoquinolin-1-amine] | 5.00 to 6.00
23 | Clc1ccc(Nc2nccc3cc(OCCN4CC5(CCO5)C4)ccc23)cn1 [Example 70, 6-(2-(1-oxa-6-azaspiro[3.3]heptan-6-yl)ethoxy)-N-(6-chloropyridin-3-yl)isoquinolin-1-amine] | 4.52 to 5.00
24 | COc1cc(Nc2nccc3cc(OCC4(C)COC4)ccc23)cnc1C [Example 187, N-(5-methoxy-6-methylpyridin-3-yl)-6-((3-methyloxetan-3-yl)methoxy)isoquinolin-1-amine formate] | > 6.00
25 | Fc1cccc2c(Nc3ccc(Cl)nc3)nccc12 [Example 22, N-(6-chloropyridin-3-yl)-5-fluoroisoquinolin-1-amine] | 5.00 to 6.00
26 | Oc1ccc2c(Nc3cnc(Cl)nc3)nccc2c1 [Example 243, 1-((2-chloropyrimidin-5-yl)amino)isoquinolin-6-ol] | 4.52 to 5.00
27 | O[C@H]1C[C@H](Oc2ccc3c(Nc4ccc(Cl)nc4)nccc3c2)C1 [Example 96, (1r,3r)-3-((1-((6-chloropyridin-3-yl)amino)isoquinolin-6-yl)oxy)cyclobutan-1-ol] | 5.00 to 6.00
28 | Clc1ccc(Nc2nccc3cc(OCc4cnn(C5COC5)c4)ccc23)cn1 [Example 117, N-(6-chloropyridin-3-yl)-6-((1-(oxetan-3-yl)-1H-pyrazol-4-yl)methoxy)isoquinolin-1-amine] | > 6.00
29 | Clc1ccc(Nc2nccc3sccc23)cn1 [Example 11, N-(6-chloropyridin-3-yl)thieno[3,2-c]pyridin-4-amine formate] | 5.00 to 6.00
30 | CC1(COc2ccc3c(Nc4cnc(Cl)c(O)c4)nccc3c2)COC1 [Example 42, 2-chloro-5-((6-((3-methyloxetan-3-yl)methoxy)isoquinolin-1-yl)amino)pyridin-3-ol] | > 6.00
31 | Clc1ccc(Nc2nccc3cc(OCC4(C5CC5)CC4)ccc23)cn1 [Example 137, 6-([1,1′-bi(cyclopropan)]-1-ylmethoxy)-N-(6-chloropyridin-3-yl)isoquinolin-1-amine] | > 6.00
